Laboratory results taken from publication PMC8511083 (European journal of medicinal chemistry, 2021).

Experiments:
[1] = tested on: panel of melanoma and breast cancer cell lines; test: Average growth inhibition in panel of melanoma and breast cancer cell lines; assay type: cell-based; conditions: Homo sapiens, read-out: Average IC50, average of results obtained in all six cell lines
A375 xenograft tumors = test: A375 subcutaneous melanoma xenograft model in NSG mice; assay type: in vivo, mouse; conditions: 20 mg/kg IP, 3 times/week, 15 days, end of experiment, vs vehicle
[2] = Liver microsome stability assay, human; conditions: human microsomes, 88 vs 51 min
OVCAR3 and OVCAR8 cells = test: Average growth inhibition in ovarian cancer cell lines; assay type: cell-based; conditions: Homo sapiens, read-out: Average IC50
survivin [3] = molecular target: T1, survivin (Homo sapiens, UniProt O15392); test: Western blot of IAPs and cleaved-PARP in A375 cells
T1 sequence (O15392 whole entry): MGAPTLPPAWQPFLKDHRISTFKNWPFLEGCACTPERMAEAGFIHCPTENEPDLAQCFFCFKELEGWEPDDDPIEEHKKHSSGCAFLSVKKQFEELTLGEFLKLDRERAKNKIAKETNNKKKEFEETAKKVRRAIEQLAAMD

MDA-MB-435 = test: In vitro antiproliferative; assay type: cell-based; conditions: Homo sapiens, MDA-MB-435, 72 h, read-out: IC50 MDA-MB-435
MDA-MB-435/LCC6MDR1 = test: In vitro antiproliferative; assay type: cell-based; conditions: Homo sapiens, 72 h, read-out: IC50 MDA-MB-435/LCC6MDRI
survivin [4] = molecular target: T1, survivin; test: Western blot of survivin in ovarian cancer cells; conditions: OVCAR8, SKOV3 and OVCAR3 cells, 24 hr, 2 and 4 μM

SMILES	IC50 [1]	other results
CC(C)c1ccc(COCc2cc(-c3ccc(C(F)(F)F)cc3)c(O)c3ncccc23)cc1 [Compound 19g, 5-(((4-isopropylbenzyl)oxy)methyl)-7-(4-(trifluoromethyl)phenyl)quinolin-8-ol]	2600 nM	
COc1ccc(-c2cnn(Cc3cc(CN4CCCC4)c(O)c4ncccc34)n2)cc1 [Compound 7g, 5-((4-(4-methoxyphenyl)-2H-1,2,3-triazol-2-yl)methyl)-7-(pyrrolidin-1-ylmethyl)quinolin-8-ol]	2000 nM	
Oc1c(CN2CCCC2)cc(Cn2cnc(-c3ccccc3)c2)c2cccnc12 [Compound 4a, 5-((4-phenyl-1H-imidazol-1-yl)methyl)-7-(pyrrolidin-1-ylmethyl)quinolin-8-ol]	4200 nM	
Oc1c(CN2CCCCC2)cc(Cn2ncc(-c3ccc(C(F)(F)F)cc3)n2)c2cccnc12 [Compound 12b, 7-(piperidin-1-ylmethyl)-5-((4-(4-(trifluoromethyl)phenyl)-2H-1,2,3-triazol-2-yl)methyl)quinolin-8-ol]		reduction of tumor weight (A375 xenograft tumors): approximately 32%; improvement of metabolic stability over MX-106 [2]: 1.7 fold
N#Cc1ccc(-c2cnn(Cc3cc(CN4CCCC4)c(O)c4ncccc34)n2)cc1 [Compound 7h, 4-(2-((8-hydroxy-7-(pyrrolidin-1-ylmethyl)quinolin-5-yl)methyl)-2H-1,2,3-triazol-4-yl)benzonitrile]	3300 nM	
CC(C)c1ccc(COCc2cc(-c3ccccc3)c(O)c3ncccc23)cc1 [Compound 19a, 5-(((4-isopropylbenzyl)oxy)methyl)-7-phenylquinolin-8-ol]		IC50 (OVCAR3 and OVCAR8 cells): 2000 nM; apoptosis induction (cleaved-PARP, western blot) (survivin [3]; 24 h): effectively induced apoptosis; survivin protein levels at 10 μM (western blot) (survivin [3]; 24 h, 10 μM): did not show survivin downregulation; survivin protein levels (western blot) (survivin [3]; 24 h, 1, 5 and 10 μM): selectively downregulated survivin
CCN(CC)Cc1cc(Cn2ncc(-c3ccc(C(F)(F)F)cc3)n2)c2cccnc2c1O [Compound 12d, 7-((diethylamino)methyl)-5-((4-(4-(trifluoromethyl)phenyl)-2H-1,2,3-triazol-2-yl)methyl)quinolin-8-ol]	3100 nM	
CCc1ccc(-c2cnn(Cc3cc(CN4CCCC4)c(O)c4ncccc34)n2)cc1 [Compound 7e, 5-((4-(4-ethylphenyl)-2H-1,2,3-triazol-2-yl)methyl)-7-(pyrrolidin-1-ylmethyl)quinolin-8-ol]	2000 nM	
Oc1c(CN2CCCC2)cc(COC2CCc3ccccc3C2)c2cccnc12 (stereo not shown) [Compound 4d, 7-(pyrrolidin-1-ylmethyl)-5-(((1,2,3,4-tetrahydronaphthalen-2-yl)oxy)methyl)quinolin-8-ol]	1900 nM	
Oc1c(CN2CCCC2)cc(Cn2ncc(-c3ccc(Br)cc3)n2)c2cccnc12 [Compound 7a, 5-((4-(4-bromophenyl)-2H-1,2,3-triazol-2-yl)methyl)-7-(pyrrolidin-1-ylmethyl)quinolin-8-ol]	2000 nM	IC50 (OVCAR3 and OVCAR8 cells): 1300 nM; apoptosis induction (cleaved-PARP, western blot) (survivin [3]; 24 h): effectively induced apoptosis; levels of other IAPs (CIAP1, XIAP, Livin; western blot) (survivin [3]; 24 h, 1, 5 and 10 μM): minimally affected; survivin protein levels (western blot) (survivin [3]; 24 h, 1, 5 and 10 μM): selectively suppressed survivin levels
COCC[n+]1c2c(n(Cc3cnccn3)c1C)C(=O)c1ccccc1C2=O [YM-155]		IC50 (MDA-MB-435): 2.4 ± 0.2 nM; IC50 (MDA-MB-435/LCC6MDR1): > 1000 nM
Oc1c(CN2CCCC2)cc(COC2Cc3ccccc3C2)c2cccnc12 [Compound 4c, 5-(((2,3-dihydro-1H-inden-2-yl)oxy)methyl)-7-(pyrrolidin-1-ylmethyl)quinolin-8-ol]	2700 nM	
Oc1c(CN2CCNCC2)cc(Cn2ncc(-c3ccc(Br)cc3)n2)c2cccnc12 [Compound 14, 5-((4-(4-bromophenyl)-2H-1,2,3-triazol-2-yl)methyl)-7-(piperazin-1-ylmethyl)quinolin-8-ol]	2600 nM	
Oc1c(CN2CCCC2)cc(Cn2ncc(-c3cccc(Br)c3)n2)c2cccnc12 [Compound 7k, 5-((4-(3-bromophenyl)-2H-1,2,3-triazol-2-yl)methyl)-7-(pyrrolidin-1-ylmethyl)quinolin-8-ol]	1700 nM	IC50 (OVCAR3 and OVCAR8 cells): 1100 nM; survivin protein accumulation (western blot) (survivin [4]): reduced the accumulation of survivin protein
O=[N+]([O-])c1ccc(-c2cnn(Cc3cc(CN4CCCC4)c(O)c4ncccc34)n2)cc1 [Compound 7f, 5-((4-(4-nitrophenyl)-2H-1,2,3-triazol-2-yl)methyl)-7-(pyrrolidin-1-ylmethyl)quinolin-8-ol]	2400 nM	
Oc1c(CN2CCCC2)cc(Cn2ncc(-c3ccc(C(F)(F)F)cc3)n2)c2cccnc12 [Compound 7b, 7-(pyrrolidin-1-ylmethyl)-5-((4-(4-(trifluoromethyl)phenyl)-2H-1,2,3-triazol-2-yl)methyl)quinolin-8-ol]	2400 nM	

Continued by falling IC50 [1], values first:

IC50 [1]	SMILES	other results
1700 nM	Oc1c(CN2CCOCC2)cc(Cn2ncc(-c3ccc(Br)cc3)n2)c2cccnc12 [Compound 12e, 5-((4-(4-bromophenyl)-2H-1,2,3-triazol-2-yl)methyl)-7-(morpholinomethyl)quinolin-8-ol]	
1700 nM	Oc1c(CN2CCCC2)cc(Cn2ncc(-c3ccccc3Br)n2)c2cccnc12 [Compound 7j, 5-((4-(2-bromophenyl)-2H-1,2,3-triazol-2-yl)methyl)-7-(pyrrolidin-1-ylmethyl)quinolin-8-ol]	
1600 nM	Cc1ccc(-c2cnn(Cc3cc(CN4CCCC4)c(O)c4ncccc34)n2)cc1 [Compound 7d, 7-(pyrrolidin-1-ylmethyl)-5-((4-(p-tolyl)-2H-1,2,3-triazol-2-yl)methyl)quinolin-8-ol]	
1600 nM	Cc1cccc(-c2cc(COCc3ccc(C(C)C)cc3)c3cccnc3c2O)c1 [Compound 19e, 5-(((4-isopropylbenzyl)oxy)methyl)-7-(m-tolyl)quinolin-8-ol]	
1400 nM	Oc1c(CN2CCCCC2)cc(Cn2ncc(-c3ccc(Br)cc3)n2)c2cccnc12 [Compound 12a, 5-((4-(4-bromophenyl)-2H-1,2,3-triazol-2-yl)methyl)-7-(piperidin-1-ylmethyl)quinolin-8-ol]	IC50 (OVCAR3 and OVCAR8 cells): 1100 nM
1400 nM	COc1ccc(-c2cc(COCc3ccc(C(C)C)cc3)c3cccnc3c2O)cc1 [Compound 19f, 5-(((4-isopropylbenzyl)oxy)methyl)-7-(4-methoxyphenyl)quinolin-8-ol]	
1400 nM	Cc1ccc(-c2cc(COCc3ccc(C(C)C)cc3)c3cccnc3c2O)cc1 [Compound 19d, 5-(((4-isopropylbenzyl)oxy)methyl)-7-(p-tolyl)quinolin-8-ol]	
1400 nM	CC(C)c1ccc(COCc2cc(-c3ccnc4ccccc34)c(O)c3ncccc23)cc1 [Compound 19c, 5’-(((4-isopropylbenzyl)oxy)methyl)-[4,7’-biquinolin]-8’-ol]	
900 nM	CC(C)c1ccc(COCc2cc(-c3cncc4ccccc34)c(O)c3ncccc23)cc1 [Compound 19b, 5-(((4-isopropylbenzyl)oxy)methyl)-7-(isoquinolin-4-yl)quinolin-8-ol]	
